The target in one assay is FGFR3 enzyme (Millipore) (Homo sapiens (Human), UniProt P22607). Kind of assay: biochemical.
Another assay addresses FGFR1 (Homo sapiens (Human), UniProt P11362). Briefly: FGFR Enzymatic Assay (FGFR1). In kind it is biochemical. The following applies: enzyme 0.02 nM, ATP 210 μM.
Another assay has as its target FGFR2 (Homo sapiens (Human), UniProt P21802). Kind of assay: FGFR Enzymatic Assay (FGFR2).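 Note: FRET read-out of peptide phosphorylation by the purified kinase, with enzyme-free blank and uninhibited enzyme as controls, potency from a variable-slope sigmoidal dose-response fit.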 The class given is biochemical. To be noted: enzyme 0.01 nM, ATP 100 μM; read-out: FGFR2 IC50.

One may read the IC50 as the concentration that inhibits the measured activity by half.

Chain of FGFR1 (P11362 22-822): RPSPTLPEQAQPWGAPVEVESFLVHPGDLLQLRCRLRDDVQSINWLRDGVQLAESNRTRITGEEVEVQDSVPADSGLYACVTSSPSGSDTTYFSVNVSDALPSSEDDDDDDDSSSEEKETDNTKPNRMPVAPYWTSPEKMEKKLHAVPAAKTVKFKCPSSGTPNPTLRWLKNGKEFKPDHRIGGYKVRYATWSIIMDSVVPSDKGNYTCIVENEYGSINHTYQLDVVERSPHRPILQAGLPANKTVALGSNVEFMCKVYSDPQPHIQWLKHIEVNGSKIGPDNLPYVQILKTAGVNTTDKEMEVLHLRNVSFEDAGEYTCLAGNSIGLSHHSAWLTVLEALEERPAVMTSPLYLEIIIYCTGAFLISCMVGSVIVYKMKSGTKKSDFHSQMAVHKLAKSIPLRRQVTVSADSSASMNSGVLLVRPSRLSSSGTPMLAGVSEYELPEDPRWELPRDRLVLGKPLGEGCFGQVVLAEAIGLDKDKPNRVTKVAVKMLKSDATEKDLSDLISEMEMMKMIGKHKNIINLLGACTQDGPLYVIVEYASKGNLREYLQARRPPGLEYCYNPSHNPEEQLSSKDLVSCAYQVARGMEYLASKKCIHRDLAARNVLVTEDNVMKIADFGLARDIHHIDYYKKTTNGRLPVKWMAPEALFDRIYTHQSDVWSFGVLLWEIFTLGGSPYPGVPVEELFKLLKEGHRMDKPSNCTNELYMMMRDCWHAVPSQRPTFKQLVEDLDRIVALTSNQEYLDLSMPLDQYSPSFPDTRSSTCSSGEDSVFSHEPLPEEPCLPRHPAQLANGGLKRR
Chain of FGFR2 (P21802 22-821): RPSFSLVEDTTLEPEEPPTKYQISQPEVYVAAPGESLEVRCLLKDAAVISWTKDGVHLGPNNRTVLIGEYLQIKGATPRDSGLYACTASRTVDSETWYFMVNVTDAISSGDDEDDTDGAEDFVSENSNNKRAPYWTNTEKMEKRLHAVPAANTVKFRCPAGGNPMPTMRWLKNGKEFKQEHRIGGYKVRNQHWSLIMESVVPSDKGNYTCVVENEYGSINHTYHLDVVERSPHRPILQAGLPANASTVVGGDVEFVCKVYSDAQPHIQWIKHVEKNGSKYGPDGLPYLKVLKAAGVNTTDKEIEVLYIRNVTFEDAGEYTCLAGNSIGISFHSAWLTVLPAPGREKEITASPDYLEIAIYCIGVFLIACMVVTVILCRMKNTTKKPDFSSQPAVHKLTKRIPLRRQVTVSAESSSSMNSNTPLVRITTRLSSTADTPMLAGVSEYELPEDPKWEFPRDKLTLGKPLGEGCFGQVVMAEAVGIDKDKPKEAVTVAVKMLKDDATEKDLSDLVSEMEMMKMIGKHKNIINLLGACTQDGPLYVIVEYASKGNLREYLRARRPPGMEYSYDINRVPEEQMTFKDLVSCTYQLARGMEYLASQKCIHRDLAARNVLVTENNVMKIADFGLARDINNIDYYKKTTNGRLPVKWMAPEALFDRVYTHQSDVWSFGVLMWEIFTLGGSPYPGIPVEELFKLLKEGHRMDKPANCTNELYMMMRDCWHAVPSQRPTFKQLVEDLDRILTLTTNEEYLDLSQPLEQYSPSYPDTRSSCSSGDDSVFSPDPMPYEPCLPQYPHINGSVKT
Chain of FGFR3 enzyme (Millipore) (P22607 23-806): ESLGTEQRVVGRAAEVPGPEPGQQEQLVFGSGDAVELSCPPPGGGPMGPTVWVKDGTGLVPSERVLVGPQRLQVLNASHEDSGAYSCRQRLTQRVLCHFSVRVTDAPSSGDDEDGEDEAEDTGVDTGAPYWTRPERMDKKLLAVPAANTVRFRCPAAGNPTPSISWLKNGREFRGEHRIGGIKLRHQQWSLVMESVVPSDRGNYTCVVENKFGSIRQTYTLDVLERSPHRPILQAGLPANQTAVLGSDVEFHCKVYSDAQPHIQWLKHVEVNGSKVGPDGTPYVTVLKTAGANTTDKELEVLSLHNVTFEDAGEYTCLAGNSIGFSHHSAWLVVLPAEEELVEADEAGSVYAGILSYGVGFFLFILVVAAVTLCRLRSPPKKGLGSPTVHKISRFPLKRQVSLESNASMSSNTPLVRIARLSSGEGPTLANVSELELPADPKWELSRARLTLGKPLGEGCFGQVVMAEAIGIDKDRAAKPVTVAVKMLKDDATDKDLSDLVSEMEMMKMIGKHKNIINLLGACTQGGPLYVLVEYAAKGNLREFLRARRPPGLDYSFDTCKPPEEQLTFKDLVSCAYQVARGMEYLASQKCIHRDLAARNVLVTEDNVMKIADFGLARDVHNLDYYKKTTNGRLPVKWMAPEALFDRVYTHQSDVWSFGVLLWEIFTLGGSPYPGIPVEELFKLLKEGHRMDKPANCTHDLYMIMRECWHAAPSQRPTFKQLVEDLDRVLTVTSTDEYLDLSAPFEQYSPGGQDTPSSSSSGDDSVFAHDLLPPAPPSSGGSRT
Experimental for FGFR2: (§1) The inhibitor potency of compounds was measured in an enzyme assay that measures peptide phosphorylation using FRET measurements to detect product formation. Inhibitors were serially diluted in DMSO and a volume of 0.5 μL was transferred to the wells of a 384-well plate. For FGFR3, a 10 μL volume of FGFR3 enzyme (Millipore) diluted in assay buffer (50 mM HEPES, 10 mM MgCl2, 1 mM EGTA, 0.01% Tween-20, 5 mM DTT, pH 7.5) was added to the plate and pre-incubated for 5-10 minutes. Appropriate controls (enzyme blank and enzyme with no inhibitor) were included on the plate. […] The plate was incubated at 25° C. for 1 hr. […] The plate was allowed to equilibrate for ˜1 hr before scanning the wells on a PheraStar plate reader.
(§2) GraphPad prism3 was used to analyze the data. The IC50 values were derived by fitting the data to the equation for a sigmoidal dose-response with a variable slope. Y=Bottom+(Top−Bottom)/(1+10^((Log IC50−X)*HillSlope)) where X is the logarithm of concentration and Y is the response.
Experimental for FGFR3 enzyme (Millipore): as §1, §2

Take `COc1cc(CCc2cnc3[nH]c(-c4ccc(F)c(C(=O)N(C)C)c4)cc3n2)cc(OC)c1` [Example 54, 5-(2-(3,5-Dimethoxyphenethyl)-5H-pyrrolo[2,3-b]pyrazin-6-yl)-2-fluoro-N,N-dimethylbenzamide]: the IC50 on FGFR3 enzyme (Millipore) was 100 to 500 nM; at FGFR1, under 100 nM; on FGFR2, under 100 nM.
With `COc1cc(CCc2cnc3[nH]c(-c4ccnc(N5CCN(C)CC5)c4)cc3n2)cc(OC)c1` [Example 55, 2-(3,5-Dimethoxyphenethyl)-6-(2-(4-methylpiperazin-1-yl)pyridin-4-yl)-5H-pyrrolo[2,3-b]pyrazine], the IC50 on FGFR3 enzyme (Millipore) was 100 to 500 nM; against FGFR1, under 100 nM; at FGFR2, under 100 nM.
For `COc1cc(CCc2cnc3[nH]c(-c4cnc(N)nc4)cc3n2)cc(OC)c1` [Example 58, 5-(2-(3,5-Dimethoxyphenethyl)-5H-pyrrolo[2,3-b]pyrazin-6-yl)pyrimidin-2-amine], the IC50 against FGFR3 enzyme (Millipore) was 100 to 500 nM; on FGFR1 it was under 100 nM; on FGFR2, under 100 nM.
With `COc1cc(CCc2cnc3[nH]c(-c4ccc(C(=O)N(C)C)nc4)cc3n2)cc(OC)c1` [Example 59, 5-(2-(3,5-Dimethoxyphenethyl)-5H-pyrrolo[2,3-b]pyrazin-6-yl)-N,N-dimethylpicolinamide], the IC50 against FGFR3 enzyme (Millipore) is 100 to 500 nM; against FGFR1, under 100 nM; on FGFR2 it was under 100 nM.
As to `COc1cc(CCc2cnc3[nH]c(-c4ccnc(C#N)c4)cc3n2)cc(OC)c1` [Example 60, 4-(2-(3,5-Dimethoxyphenethyl)-5H-pyrrolo[2,3-b]pyrazin-6-yl)picolinonitrile], the half-inhibitory concentration (IC50) is 100 to 500 nM on FGFR3 enzyme (Millipore), under 100 nM against FGFR1 and under 100 nM at FGFR2.
With `COc1cc(CCc2cnc3[nH]c(-c4ccc(OC)nc4)cc3n2)cc(OC)c1` [Example 61, 2-(3,5-Dimethoxyphenethyl)-6-(6-methoxypyridin-3-yl)-5H-pyrrolo[2,3-b]pyrazine], the half-inhibitory concentration (IC50) was 100 to 500 nM at FGFR3 enzyme (Millipore), under 100 nM against FGFR1 and under 100 nM on FGFR2.
Consider `COc1cc(CCc2cnc3[nH]c(-c4ccc5cnn(C)c5c4)cc3n2)cc(OC)c1` [Example 63, 2-(3,5-Dimethoxyphenethyl)-6-(1-methyl-1H-indazol-6-yl)-5H-pyrrolo[2,3-b]pyrazine], for which the IC50 on FGFR3 enzyme (Millipore) was 100 to 500 nM; against FGFR1, under 100 nM; on FGFR2 it was under 100 nM.
With `COc1cc(CCc2cnc3[nH]c(-c4ccc(NC(C)=O)nc4)cc3n2)cc(OC)c1` [Example 67, N-(5-(2-(3,5-Dimethoxyphenethyl)-5H-pyrrolo[2,3-b]pyrazin-6-yl)pyridin-2-yl)acetamide], the IC50 at FGFR3 enzyme (Millipore) is 100 to 500 nM; on FGFR1 it was under 100 nM; at FGFR2 it was under 100 nM.
In the case of `COc1cc(CCc2cnc3[nH]c(-c4ccc(N5CCCC5=O)nc4)cc3n2)cc(OC)c1` [Example 68, 1-(5-(2-(3,5-Dimethoxyphenethyl)-5H-pyrrolo[2,3-b]pyrazin-6-yl)pyridin-2-yl)pyrrolidin-2-one], the IC50 on FGFR3 enzyme (Millipore) was 100 to 500 nM; against FGFR1 it was under 100 nM; at FGFR2, under 100 nM.
Turning to `COc1cc(CCc2cnc3[nH]c(-c4cncc(N5CCOCC5)c4)cc3n2)cc(OC)c1` [Example 69, 4-(5-(2-(3,5-Dimethoxyphenethyl)-5H-pyrrolo[2,3-b]pyrazin-6-yl)pyridin-3-yl)morpholine], the half-inhibitory concentration (IC50) on FGFR3 enzyme (Millipore) was 100 to 500 nM; at FGFR1, under 100 nM; on FGFR2, under 100 nM.
As for `COc1cc(CCc2cnc3[nH]c(-c4ccc5[nH]ncc5c4)cc3n2)cc(OC)c1` [Example 70, 2-(3,5-Dimethoxyphenethyl)-6-(1H-indazol-5-yl)-5H-pyrrolo[2,3-b]pyrazine], the IC50 was 100 to 500 nM against FGFR3 enzyme (Millipore), under 100 nM on FGFR1 and under 100 nM at FGFR2.
Regarding `COc1cc(CCc2cnc3[nH]c(-c4ccnc(C(=O)N(C)C)c4)cc3n2)cc(OC)c1` [Example 74, 4-(2-(3,5-Dimethoxyphenethyl)-5H-pyrrolo[2,3-b]pyrazin-6-yl)-N,N-dimethylpicolinamide], the IC50 against FGFR3 enzyme (Millipore) is 100 to 500 nM; at FGFR1, under 100 nM; on FGFR2, under 100 nM.
As to `COc1cc(CCc2cnc3[nH]c(-c4ccnc(C(=O)N5CC(O)C5)c4)cc3n2)cc(OC)c1` [Example 75, (4-(2-(3,5-Dimethoxyphenethyl)-5H-pyrrolo[2,3-b]pyrazin-6-yl)pyridin-2-yl)(3-hydroxyazetidin-1-yl)methanone], the half-inhibitory concentration (IC50) was 100 to 500 nM against FGFR3 enzyme (Millipore), under 100 nM against FGFR1 and under 100 nM on FGFR2.

For the origin of these results see US9745311B2, “Substituted pyrrolo[2,3-b]pyrazines as FGFR inhibitors” (Incyte Corporation, priority 2012, dated 2017).
